# Like-named read-outs stand apart in the source and are kept apart here.
# Legend:
# [1] = target: human TYK2 (JH2domain-pseudokinase) (Homo sapiens (Human), UniProt P29597); assay: TYK2 JH2 Domain Binding Assay (KINOMEscan)
# In short: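 Competition binding of an NFkB-DBD fusion of human TYK2 JH2 (G556–D888), expressed in HEK293 and used as crude extract at <0.1 nM, against immobilized ligand beads; 1 h at room temperature in PBS/Tween/DTT/BSA buffer, 0.9% DMSO.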
# [2] = target: JAK2 kinase domain (JH1) (Homo sapiens (Human), UniProt O60674); assay: JAK2 Radioactive Kinase Assay; type: biochemical; conditions: for inhibition at 10 µM: read-out: JAK2 JH1% Inhibition @ 10 μM
# Sequence of JAK2 kinase domain (JH1) (O60674 849-1124): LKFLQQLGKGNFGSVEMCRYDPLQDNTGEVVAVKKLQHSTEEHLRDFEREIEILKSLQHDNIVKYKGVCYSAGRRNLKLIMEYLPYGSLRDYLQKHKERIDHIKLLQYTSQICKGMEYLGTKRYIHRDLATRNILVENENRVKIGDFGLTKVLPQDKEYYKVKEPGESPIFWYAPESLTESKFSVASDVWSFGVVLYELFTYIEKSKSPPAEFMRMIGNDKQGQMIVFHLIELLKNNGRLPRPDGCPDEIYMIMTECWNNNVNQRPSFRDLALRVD
# In short: (§1)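 Each kinase domain is incubated with test compound at 10 μM. Activity is then measured radiometrically and expressed as percent inhibition relative to uninhibited enzyme.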
# [3] = target: Tyk2 kinase domain (DH1) (Homo sapiens (Human), UniProt P29597); assay: Tyk2 Radioactive Kinase Assay; type: biochemical; conditions: for inhibition at 10 µM: read-out: Tyk2 JH1% Inhibition @ 10 μM
# Sequence of Tyk2 kinase domain (DH1) (P29597 897-1176): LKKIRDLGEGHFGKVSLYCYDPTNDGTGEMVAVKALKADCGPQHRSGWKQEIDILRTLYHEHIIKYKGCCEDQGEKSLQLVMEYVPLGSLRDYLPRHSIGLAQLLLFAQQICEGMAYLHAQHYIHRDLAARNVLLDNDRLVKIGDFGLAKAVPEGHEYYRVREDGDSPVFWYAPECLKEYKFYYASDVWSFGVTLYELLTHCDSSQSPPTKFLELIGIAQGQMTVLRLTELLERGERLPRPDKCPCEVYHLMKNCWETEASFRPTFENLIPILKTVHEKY
# In short: as §1
# Sequence of human TYK2 (JH2domain-pseudokinase) (P29597 556-888): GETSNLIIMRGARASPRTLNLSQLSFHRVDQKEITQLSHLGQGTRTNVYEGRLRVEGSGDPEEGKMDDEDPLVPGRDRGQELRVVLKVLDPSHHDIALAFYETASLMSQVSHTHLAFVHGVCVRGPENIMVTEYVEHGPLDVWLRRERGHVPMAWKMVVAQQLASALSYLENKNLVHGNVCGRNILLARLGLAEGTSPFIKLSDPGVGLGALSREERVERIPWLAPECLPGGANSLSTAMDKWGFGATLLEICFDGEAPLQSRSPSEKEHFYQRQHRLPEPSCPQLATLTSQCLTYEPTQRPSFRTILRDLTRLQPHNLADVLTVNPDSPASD
Compound,Kd [1],"inhibition at 10 µM ([2]; compound at 10 μM, ATP 10 μM)","inhibition at 10 µM ([3]; compound at 10 μM, ATP 10 μM)",further results
CNc1cc(Nc2cccn([C@@H]3CCCC[C@@H]3OC)c2=O)nc2c(C(=O)N[C@H]3CC[C@@H]3OC)cnn12 [I-1037],0.2 to 1 nM,–,–,"inhibition at 10 µM ([2]; 10 μM compound, 10 μM ATP): < 50%; inhibition at 10 µM ([3]; 10 μM compound, 10 μM ATP): < 50%"
CNc1cc(Nc2cccn(-c3cc(C)nn3C)c2=O)nc2c(C(=O)N[C@H]3C[C@H]3F)cnn12 [I-341],0.2 to 1 nM,< 50%,< 50%,–
CNc1cc(Nc2cccn(C3=NC(C)(C)CS3)c2=O)nc2c(C(=O)NC3CCC3)cnn12 [I-503],0.2 to 1 nM,< 50%,< 50%,–
CNc1cc(-c2cnn(-c3ccccc3)c2)nc2c(C(N)=O)cnn12 [I-44],0.2 to 1 nM,< 50%,< 50%,–
CNc1cc(Nc2cccn([C@H]3CCC[C@@H](OC)C3)c2=O)nc2c(C(=O)NCC3(CO)CC3)cnn12 (racemic) [I-862],0.2 to 1 nM,–,–,"inhibition at 10 µM ([2]; 10 μM compound, 10 μM ATP): < 50%; inhibition at 10 µM ([3]; 10 μM compound, 10 μM ATP): < 50%"
CNc1cc(-c2cn(C3CCOCC3)c3ncccc23)nc2c(C(=O)N[C@@H]3CC[C@@H]3O)cnn12 [I-1114],0.2 to 1 nM,–,–,"inhibition at 10 µM ([2]; 10 μM compound, 10 μM ATP): < 50%; inhibition at 10 µM ([3]; 10 μM compound, 10 μM ATP): < 50%"
"CNc1cc(Nc2cccc(C3CCCCO3)n2)nc2c(C(=O)NC3CC3)cnn12 (stereo in doubt) [I-464, (S)—N-cyclopropyl-7-(methylamino)-5-((6-(tetrahydro-2H-pyran-2-yl)pyridin-2-yl)amino) pyrazolo[1,5-a]pyrimidine-3-carboxamide]",0.2 to 1 nM,< 50%,< 50%,–
CNc1cc(Nc2cccn([C@H]3CCCN(C)C3)c2=O)nc2c(C(=O)N[C@@H]3C[C@@H]3F)cnn12 [I-535],< 0.2 nM,< 50%,< 50%,–
CNc1cc(Nc2cccn(-c3ccc(F)cc3)c2=O)nc2c(C(=O)NCC(C)(C)CO)cnn12 [I-245],< 0.2 nM,< 50%,< 50%,–
CNc1cc(Nc2cccnc2OC(F)F)nc2c(C(N)=O)cnn12 [I-152],0.2 to 1 nM,< 50%,< 50%,–
CNc1cc(Nc2cccn(-c3ccc(F)cn3)c2=O)nc2c(C(=O)NC3CC3)cnn12 [I-116],< 0.2 nM,< 50%,< 50%,–
CNc1cc(Nc2cccn([C@@H]3CCOC3)c2=O)nc2c(C(N)=O)cnn12 [I-195],0.2 to 1 nM,< 50%,< 50%,–
CNc1cc(Nc2cccnc2OC2CCC2)nc2c(C(=O)NC3CC3)cnn12 [I-169],0.2 to 1 nM,< 50%,< 50%,–
CNc1cc(Nc2cccn([C@H]3CC[C@@H]3O)c2=O)nc2c(C(=O)N[C@@H]3C[C@@H]3F)cnn12 [I-998],< 0.2 nM,–,–,"JAK2 JH1% Inhibition @ 10 μM ([2]; 10 μM compound, 10 μM ATP): A (percent inhibition at 10 μM lower than 50); Tyk2 JH1% Inhibition @ 10 μM ([3]; 10 μM compound, 10 μM ATP): A (percent inhibition at 10 μM lower than 50)"
CNc1cc(Nc2cccn([C@H]3CC[C@@H](N4CCOCC4)CC3)c2=O)nc2c(C(N)=O)cnn12 [I-68],0.2 to 1 nM,< 50%,< 50%,–
CNc1cc(Nc2cccn(-c3nccs3)c2=O)nc2c(C(N)=O)cnn12 [I-15],0.2 to 1 nM,< 50%,< 50%,–
CNc1cc(Nc2cccn(-c3ccn(C4CC4)n3)c2=O)nc2c(C(N)=O)cnn12 [I-20],< 0.2 nM,< 50%,< 50%,–
CNc1cc(Nc2cccc(N3CCC4(CCCO4)CC3)n2)nc2c(C(=O)N[C@@H]3CC[C@@H]3O)cnn12 [I-657],< 0.2 nM,< 50%,< 50%,–
CNc1cc(Nc2cccn([C@@H]3CCOC3)c2=O)nc2c(C(=O)NC3CC3)cnn12 [I-202],0.2 to 1 nM,< 50%,< 50%,–
CNc1cc(Nc2cccnc2C(C)(C)O)nc2c(C(=O)N[C@H]3C[C@H]3F)cnn12 [I-307],0.2 to 1 nM,< 50%,< 50%,–

Compound,Kd [1],"inhibition at 10 µM ([2]; compound at 10 μM, ATP 10 μM)","inhibition at 10 µM ([3]; compound at 10 μM, ATP 10 μM)",further results
CNc1cc(Nc2cccnc2C(C)(F)F)nc2c(C(=O)NC3CC3)cnn12 [I-297],0.2 to 1 nM,< 50%,< 50%,–
CNc1cc(Nc2cccnc2O[C@H]2C[C@@H](OC)C2)nc2c(C(=O)NC3CC3)cnn12 [I-184],0.2 to 1 nM,< 50%,< 50%,–
CNc1cc(Nc2ccc3c(n2)OCCO3)nc2c(C(=O)N[C@H]3C[C@H]3F)cnn12 [I-532],0.2 to 1 nM,< 50%,< 50%,–
CNc1cc(-c2nn(C3CCOC3)c3ncccc23)nc2c(C(=O)N[C@H]3C[C@H]3F)cnn12 (stereo partly drawn) [I-452],< 0.2 nM,< 50%,< 50%,–
CNc1cc(Nc2cccc(N3CC[C@@H](OC)C3)n2)nc2c(C(=O)NC3CC3)cnn12 [I-482],0.2 to 1 nM,–,–,"JAK2 JH1% Inhibition @ 10 μM ([2]; compound at 10 μM, ATP 10 μM): A (percent inhibition at 10 μM lower than 50); Tyk2 JH1% Inhibition @ 10 μM ([3]; compound at 10 μM, ATP 10 μM): A (percent inhibition at 10 μM lower than 50)"
CNc1cc(Nc2cccn([C@H]3CCCOC3)c2=O)nc2c(C(=O)N[C@@H]3CC[C@@H](O)C3)cnn12 [I-729],< 0.2 nM,< 50%,< 50%,–
CNc1cc(Nc2cccn([C@H]3CCCOC3)c2=O)nc2c(C(=O)N[C@H]3CC[C@H]3O)cnn12 [I-745],< 0.2 nM,< 50%,< 50%,–
CNc1cc(Nc2cc(C)nc(N3CC[C@@H](OC)C3)c2)nc2c(C(N)=O)cnn12 [I-29],1 to 10 nM,< 50%,< 50%,–
CNc1cc(Nc2cccn(C3CCOCC3)c2=O)nc2c(C(=O)N[C@@H]3CC[C@H]3O)cnn12 [I-597],0.2 to 1 nM,< 50%,< 50%,–
CNc1cc(Nc2cc(C)cnc2OC(C)C)nc2c(C(=O)N[C@H]3C[C@H]3F)cnn12 [I-214],< 0.2 nM,< 50%,< 50%,–
CNc1cc(Nc2cccnc2O[C@H]2CC[C@H](O)CC2)nc2c(C(=O)N[C@H]3C[C@H]3F)cnn12 [I-239],< 0.2 nM,< 50%,< 50%,–
CNc1cc(Nc2cccn([C@@H]3CCCC[C@@H]3O)c2=O)nc2c(C(=O)NC3CC3)cnn12 [I-879],1 to 10 nM,–,–,"inhibition at 10 µM ([2]; 10 μM compound, 10 μM ATP): < 50%; inhibition at 10 µM ([3]; 10 μM compound, 10 μM ATP): < 50%"
CNc1cc(Nc2cc(F)cn([C@@H]3CCCOC3)c2=O)nc2c(C(=O)NC3CC3)cnn12 [I-533],< 0.2 nM,< 50%,< 50%,–
CNc1cc(Nc2cccc([C@H]3CCCCO3)n2)nc2c(C(=O)N[C@H]3CC[C@H]3O)cnn12 [I-647],< 0.2 nM,< 50%,< 50%,–
CNc1cc(Nc2cccc(N3CCOC3=O)n2)nc2c(C(N)=O)cnn12 [I-65],< 0.2 nM,< 50%,< 50%,–
CNc1cc(Nc2cccn(C3CCN(C)CC3)c2=O)nc2c(C(=O)NCC3(CO)CC3)cnn12 [I-543],0.2 to 1 nM,< 50%,< 50%,–
CNc1cc(Nc2cccn(C3CCN(CC(F)F)CC3)c2=O)nc2c(C(=O)N[C@H]3C[C@H]3F)cnn12 [I-230],0.2 to 1 nM,< 50%,< 50%,–
CNc1cc(Nc2cc(F)cnc2OC(C)C)nc2c(C(=O)NC3CC3)cnn12 [I-209],0.2 to 1 nM,< 50%,< 50%,–
CNc1cc(Nc2cccnc2OC)nc2c(C(=O)NC[C@@H](C)CO)cnn12 [I-484],< 0.2 nM,< 50%,< 50%,–
CNc1cc(-n2cc(N3CCOCC3)c3ncccc32)nc2c(C(=O)NC3CC3)cnn12 [I-554],1 to 10 nM,< 50%,< 50%,–
